In brackets after ≈: the same amount, converted by molar mass. Where two headings read alike, the source gives them in different places.
Tests used:
ATF4 = test: HEK-ATF4 High Content Imaging assay (prevention of Tunicamycin induced ISR; ATF4 signal ratio between nucleus and cytoplasm); format: cell-based; conditions: Homo sapiens; Wild-type HEK293 cells, Tunicamycin induced ISR, 6 h; read-out: IIEK-ATF4 Activity
Protocol: HEK-ATF4 High Content Imaging Assay
Example compounds were tested in the HEK-ATF4 High Content Imaging assay to assess their pharmacological potency to prevent Tunicamycin induced ISR. Wild-type HEK293 cells were plated in 384-well imaging assay plates at a density of 12,000 cells per well in growth medium (containing DMEM/F12, 10% FBS, 2 mM L-Glutamine, 100 U/mL Penicillin-100 μg/mL Streptomycin) and incubated at 37° C., 5% CO2. 24 h later, the medium was changed to 50 μL assay medium per well (DMEM/F12, 0.3% FBS, 2 mM L-Glutamine, 100 U/mL Penicillin-100 μg/mL Streptomycin). Example compounds were serially diluted in DMSO, spotted into intermediate plates and prediluted with assay medium containing 3.3 μM Tunicamycin to give an 11-fold excess of final assay concentration. In addition to the example compound testing area, the plates also contained multiples of control wells for assay normalization purposes, wells containing Tunicamycin but no example compounds (High control), as well as wells containing neither example compound nor Tunicamycin (Low control). The assay was started by transferring 5 μL from the intermediate plate into the assay plates, followed by incubation for 6 h at 37° C., 5% CO2. Subsequently, cells were fixed (4% PFA in PBS, 20 min at r.t.) and submitted to indirect ATF4 immunofluorescence staining (primary antibody rabbit anti ATF4, clone D4B8, Cell Signaling Technologies; secondary antibody Alexa Fluor 488 goat anti-rabbit IgG (H+L), Thermofisher Scientific). Nuclei were stained using Hoechst dye (Thermofisher Scientific), and plates were imaged on an Opera Phenix High Content imaging platform equipped with 405 nm and 488 nm excitation. Finally, images were analyzed using script based algorithms. The main readout HEK-ATF4 monitored the ATF4 signal ratio between nucleus and cytoplasm. Tunicamycin induced an increase in the overall ATF4 ratio signal, which was prevented by ISR modulating example compounds. In addition, HEK-CellCount readout was derived from counting the number of stained nuclei corresponding to healthy cells. This readout served as an internal toxicity control.

[1] = biological target: T1, human ERG potassium channel (hERG) (Homo sapiens, UniProt Q12809); test: hERG channel tail current recording using in vitro Rapid ICE (automated patch-clamp, QPatch HTX); format: cell-based; conditions: Table 26
T1 construct: expressed in transfected cells; host or cells: HEK293, stably transfected, tetracycline-inducible promoter
T1 sequence (Q12809 whole entry): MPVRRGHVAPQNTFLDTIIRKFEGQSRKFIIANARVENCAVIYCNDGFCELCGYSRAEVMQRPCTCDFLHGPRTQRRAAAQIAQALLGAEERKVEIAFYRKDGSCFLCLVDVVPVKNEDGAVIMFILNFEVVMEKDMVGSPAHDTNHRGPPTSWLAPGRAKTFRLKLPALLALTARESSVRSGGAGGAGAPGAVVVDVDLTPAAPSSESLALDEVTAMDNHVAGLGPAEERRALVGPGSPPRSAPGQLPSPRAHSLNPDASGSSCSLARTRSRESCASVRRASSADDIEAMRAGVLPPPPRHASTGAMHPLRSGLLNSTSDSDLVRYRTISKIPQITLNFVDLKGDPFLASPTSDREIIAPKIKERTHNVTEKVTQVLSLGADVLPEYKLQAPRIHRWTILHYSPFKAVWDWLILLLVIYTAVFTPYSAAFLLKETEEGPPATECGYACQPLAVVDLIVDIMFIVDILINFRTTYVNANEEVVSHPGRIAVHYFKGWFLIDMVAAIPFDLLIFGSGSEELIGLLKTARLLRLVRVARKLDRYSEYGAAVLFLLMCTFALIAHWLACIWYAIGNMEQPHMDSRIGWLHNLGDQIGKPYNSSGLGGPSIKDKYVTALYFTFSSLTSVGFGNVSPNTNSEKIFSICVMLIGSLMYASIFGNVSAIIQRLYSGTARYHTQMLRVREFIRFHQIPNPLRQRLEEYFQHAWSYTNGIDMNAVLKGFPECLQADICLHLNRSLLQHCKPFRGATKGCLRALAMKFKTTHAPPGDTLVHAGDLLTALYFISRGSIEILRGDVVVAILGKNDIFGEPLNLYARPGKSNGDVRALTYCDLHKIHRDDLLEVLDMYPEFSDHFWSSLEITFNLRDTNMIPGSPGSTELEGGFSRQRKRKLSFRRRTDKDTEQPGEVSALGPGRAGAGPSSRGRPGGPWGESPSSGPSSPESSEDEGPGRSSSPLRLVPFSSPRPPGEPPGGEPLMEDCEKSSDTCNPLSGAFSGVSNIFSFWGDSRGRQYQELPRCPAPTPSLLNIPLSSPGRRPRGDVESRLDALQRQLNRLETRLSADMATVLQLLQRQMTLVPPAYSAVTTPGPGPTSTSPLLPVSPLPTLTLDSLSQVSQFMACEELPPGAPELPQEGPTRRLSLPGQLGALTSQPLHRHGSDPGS
Protocol: Protocol—Measure of the Effect on hERG Channel by Tail Current Recording Using In Vitro Rapid ICE
The potency of the example compounds in inhibiting human ERG potassium channel (hERG) tail current was assessed in a recombinant HEK293 cell line stably transfected with hERG cDNA under an inducible promoter, using Rapid ICE (rapid ion channel electrophysiology) assay. Rapid ICE is an automated patch-clamp assay utilizing the QPatch HTX system (Sophion Bioscience A/S). Briefly, inducible HEK hERG cells were cultivated in minimum essential medium supplemented with 10% FBS, 1% non-essential amino acids, 1% sodium pyruvate, 2 mM 1-glutamine, 15 μg/mL blasticidin, and 100 μg/mL hygromycin. hERG channel expression induction was obtained by adding 10 μg/mL tetracycline for 24, 48, or 72 h before recordings.
On the day of the experiment, cells were detached with TrypLE and prepared to be loaded on the instrument. Cells were resuspended in 7 mL of Serum-Free Media containing 25 mM Hepes and soybean trypsin inhibitor and immediately placed in the cell storage tank of the machine. The composition of the extracellular buffer was (mM): NaCl 137, KCl 4, CaCl2 1.8, MgCl2 1.0, d-glucose 10, N-2-hydroxyethylpiperazine-N′-2-ethanesulfonic acid (HEPES) 10, pH 7.4 with 1 M NaOH. The composition of the intracellular solution was (mM): KCl 130, MgCl2 1.0, ethylene glycol-bis(β-aminoethyl ether)-N,N,N′,N′-tetraacetic acid (EGTA) 5, MgATP 5, HEPES 10, pH 7.2 with 1 M KOH. The voltage protocol included the following steps: step from −80 to −50 mV for 200 ms, +20 mV for 4.8 s, step to −50 mV for 5 s, then step to the holding potential of −80 mV. Compounds were dissolved in DMSO and diluted in extracellular buffer to achieve final test concentrations (0.3, 3, and 30 μM) in 0.3% DMSO. The voltage protocol was run and recorded continuously during the experiment. The vehicle, corresponding to 0.3% DMSO in extracellular buffer was then applied for 3 min, followed by the test substance in triplicate. The standard combined exposure time was 5 min. The average of tail current amplitude values recorded from four sequential voltage pulses was used to calculate for each cell the effect of the test substance by calculating the residual current (% control) compared with vehicle pretreatment. Data were reported as % inhibition for each concentration tested, and IC50 values were estimated using QPatch software. At least two cells were tested, and even more if results diverged.

[2] = Thermodynamic (Equilibrium) solubility in selected buffer; format: physicochemical; conditions: Table 25; for solubility: aqueous buffer, thermodynamic from solid
Protocol: Protocol—Thermodynamic (Equilibrium) Solubility in Selected Buffer
Example compounds were tested in the Thermodynamic (Equilibrium) solubility in selected buffer assay. The test compound, in powder form, was weighted into a 4 mL glass vial and a calculated volume of selected medium was added to reach the target concentration of the solubility test (1 mg/mL). The solution was then stirred overnight at r.t. protected from the light. The solution was filtered through a 0.45 μm PTFE membrane at ambient temperature. An aliquot of the resulting filtrate was quantified using UPLC-UV method described below against a reference solution of the test compound, 0.8 mg/mL in DMSO. Media compositions: Phosphate buffer 50 mM (pH=2.0) […] of NaH2PO4, H2O in 200 mL of ultrapurified water adjusted at pH 2 with phosphoric acid 85%; Acetate buffer 50 mM (pH=5.5) 820 mg of anhydrous sodium acetate in 200 mL of ultrapurified water adjusted at pH 5.5 with acetic acid 99.8%; Phosphate buffer 50 mM (pH=7.4) 40.5 mL of Na2HPO4 0.1 M solution+9.5 mL of NaH2PO4 0.1 M solution. Analytical conditions: UPLC-UV-MS analyses were performed with a Waters Acquity UPLC HClass-PDA-QDa system using a reverse phase Acquity BEH C18 column (2.1 mm×50 mm, 1.7 μm; temperature: 40° C.) and a gradient of 10-95% B (A=0.1% formic acid in H2O; B=0.05% formic acid in ACN) over 1.8 min then 100% B for 0.8 min, with an injection volume of 0.4 μL at flow rate of 0.65 mL/min. UV chromatograms were recorded at 220 nm, 254 nm and 290 nm using a photo diode array detector. Mass spectra were recorded in the 150 to 900 M/Z range at a sampling rate of 10 scans per sec using a QDa detector. Data were integrated using Empower®3 software. Data Analysis: Equilibrium solubility of the test compound in the selected medium was calculated through the ratio of the surface area of the UV chromatographic peak of the compound in the filtrate to the surface of the UV chromatographic peak of the compound in the reference solution.

[3] = acetate buffer 50 mM, pH 5.5, read-out: Solubility (μg/mL) pH 5.5
[4] = phosphate buffer 50 mM, pH 2.0, read-out: Solubility (μg/mL) pH 2.0
[5] = phosphate buffer 50 mM, pH 7.4, read-out: Solubility (μg/mL) pH 7.4

Compound | IC50 (ATF4) [µM] | solubility [2, 3] [µg/mL] | solubility [2, 4] [µg/mL] | solubility [2, 5] [µg/mL] | Solubility (μg/mL) pH 2.0 ([2]; pH 2.0) | IC50 [1] [µM]
O=C(COc1ccc(Cl)c(F)c1)N[C@H]1CC[C@H](c2nnc(OCCOC3CCC3)o2)NC1 [Example 82, 2-(4-chloro-3-fluorophenoxy)-N-[(3S,6R)-6-[5-(2-cyclobutoxyethoxy)-1,3,4-oxadiazol-2-yl]piperidin-3-yl]acetamide] | 0.001 to 0.5 | – | – | – | – | > 5
O=C(COc1ccc(Cl)c(F)c1)N[C@H]1CC[C@H](c2nnc(OCC3CC3(F)F)o2)NC1 (stereo partly drawn) [Example 66, 2-(4-chloro-3-fluorophenoxy)-N-[(3S,6R)-6-{5-[(2,2-difluorocyclopropyl)methoxy]-1,3,4-oxadiazol-2-yl}piperidin-3-yl]acetamide] | 0.5 to 2 | – | – | – | – | 1 to 5
CCCCOc1nnc([C@H]2CC[C@H](NC(=O)COc3ccc(Cl)c(F)c3)CN2)o1 [Example 67, N-[(3S,6R)-6-(5-butoxy-1,3,4-oxadiazol-2-yl)piperidin-3-yl]-2-(4-chloro-3-fluorophenoxy)acetamide] | 0.001 to 0.5 | – | – | – | – | 1 to 5
CCN1C[C@H](NC(=O)COc2ccc(Cl)c(F)c2)CC[C@H]1c1nnc(-c2ccc(Cl)cc2)o1 [Example 47, 2-(4-chloro-3-fluorophenoxy)-N-[(3R,6S)-6-[5-(4-chlorophenyl)-1,3,4-oxadiazol-2-yl]-1-ethylpiperidin-3-yl]acetamide] | 0.001 to 0.5 | – | – | – | – | 0.001 to 1
CC(C)CCOc1nnc([C@H]2CC[C@H](NC(=O)COc3ccc(Cl)c(F)c3)CN2)o1 [Example 70, 2-(4-chloro-3-fluorophenoxy)-N-[(3S,6R)-6-[5-(3-methylbutoxy)-1,3,4-oxadiazol-2-yl]piperidin-3-yl]acetamide] | 0.001 to 0.5 | – | – | – | – | 1 to 5
O=C(COc1ccc(Cl)c(F)c1)N[C@H]1CC[C@H](c2nnc(OCC3CCC3(F)F)o2)NC1 (stereo partly drawn) [Example 71, 2-(4-chloro-3-fluorophenoxy)-N-[(3S,6R)-6-{5-[(2,2-difluorocyclobutyl)methoxy]-1,3,4-oxadiazol-2-yl}piperidin-3-yl]acetamide] | 0.5 to 2 | – | – | – | – | 1 to 5
Cc1ccc(-c2nnc([C@H]3CC[C@H](NC(=O)COc4ccc(Cl)c(F)c4)CN3)o2)cn1 [Example 34, 2-(4-chloro-3-fluorophenoxy)-N-[(3S,6R)-6-[5-(6-methylpyridin-3-yl)-1,3,4-oxadiazol-2-yl]piperidin-3-yl]acetamide] | 0.5 to 2 | 239 (≈ 536 µM) | 994 (≈ 2230 µM) | 153 (≈ 343 µM) | – | –
Cn1nc(-c2nnc([C@H]3CC[C@H](NC(=O)COc4ccc(Cl)c(F)c4)CN3)o2)cc1Cl [Example 51, N-[(3S,6R)-6-[5-(5-chloro-1-methyl-1H-pyrazol-3-yl)-1,3,4-oxadiazol-2-yl]piperidin-3-yl]-2-(4-chloro-3-fluorophenoxy)acetamide] | 0.5 to 2 | 4 (≈ 8.52 µM) | 945 (≈ 2010 µM) | 2 (≈ 4.26 µM) | – | –
CC(Oc1ccc(Cl)cc1)C(=O)N[C@H]1CC[C@H](c2nnc(-c3ccc(C(F)(F)F)cc3)o2)NC1 (stereo partly drawn) [Example 4, 2-(4-chlorophenoxy)-N-[(3S,6R)-6-{5-[4-(trifluoromethyl)phenyl]-1,3,4-oxadiazol-2-yl}piperidin-3-yl]propanamide] | – | – | – | – | – | 0.001 to 1
O=C(CO[C@H]1C[C@@H](OC(F)(F)F)C1)N[C@@H]1CC[C@@H](c2nnc(-c3ccc(Cl)cc3)o2)NC1 [Example 5] | – | 215 (≈ 453 µM) | – | 278 (≈ 585 µM) | quant.^# | –

More lines, main results first:

IC50 (ATF4) [µM] | solubility [2, 3] [µg/mL] | solubility [2, 4] [µg/mL] | solubility [2, 5] [µg/mL] | Solubility (μg/mL) pH 2.0 ([2]; pH 2.0) | Compound | IC50 [1] [µM]
0.5 to 2 | – | – | – | – | CC(C)(C)OC(=O)N1C[C@@H](NC(=O)COc2ccc(Cl)c(F)c2)CC[C@@H]1c1nnc(OCCOC(F)(F)F)o1 [Example 76, tert-butyl (2R,5S)-5-[2-(4-chloro-3-fluorophenoxy)acetamido]-2-{5-[2-(trifluoromethoxy)ethoxy]-1,3,4-oxadiazol-2-yl}piperidine-1-carboxylate] | > 5
0.001 to 0.5 | – | – | – | – | O=C(COc1ccc(Cl)c(Cl)c1)N[C@H]1CC[C@H](c2nnc(OCCOC3CC3)o2)NC1 [Example 86, N-[(3S,6R)-6-[5-(2-cyclopropoxyethoxy)-1,3,4-oxadiazol-2-yl]piperidin-3-yl]-2-(3,4-dichlorophenoxy)acetamide] | 1 to 5
0.001 to 0.5 | – | – | – | – | O=C(COc1ccc(Cl)c(F)c1)N[C@H]1CC[C@H](c2nnc(N3CC(OC(F)(F)F)C3)o2)NC1 [Example 91, 2-(4-chloro-3-fluorophenoxy)-N-[(3S,6R)-6-{5-[3-(trifluoromethoxy)azetidin-1-yl]-1,3,4-oxadiazol-2-yl}piperidin-3-yl]acetamide] | 1 to 5
2 to 15 | – | – | – | – | O=C(COc1ccc(Cl)c(F)c1)N[C@H]1CC[C@H](c2nnc(-c3ccc(Cl)cc3)o2)NC1=O (single isomer, unassigned) [Example 108] | 0.001 to 1
0.5 to 2 | – | – | – | – | O=C(COc1ccc(Cl)c(F)c1)N[C@H]1CC[C@H](c2nnc(N3CC(CC(F)(F)F)C3)o2)NC1 [Example 92, 2-(4-chloro-3-fluorophenoxy)-N-[(3S,6R)-6-{5-[3-(2,2,2-trifluoroethyl)azetidin-1-yl]-1,3,4-oxadiazol-2-yl}piperidin-3-yl]acetamide] | 1 to 5

— patent US12258338B2, “Modulators of the integrated stress response pathway” (EVOTEC INTERNATIONAL GMBH, priority 2019, dated 2025)
